Laboratory results reported in US20080318938A1, “METHODS FOR TREATING ABERRANT CELL PROLIFERATION DISORDERS” (priority 2007, published 2008).

Assays:
[1] = test system: KM12; test: Inhibition of cell proliferation (MTT); type: cell-based; details: Homo sapiens; KM12, Colon; 48 hours
Outline: (§1)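 Cells plated, then dosed with compound (final 0.1–10 μM), PBS vehicle, or a Velcade/etoposide/Taxol cocktail. After 48 h culture at 37 °C under 5% CO2, medium is removed and MTT at 0.863 mg/ml added; EC50 reflects half-maximal inhibition of growth.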

[2] = test system: MC116; test: Inhibition of cell proliferation (MTT); type: cell-based; details: Homo sapiens; MC116, Lymphoma; 48 hours
Outline: as §1

[3] = test system: Namalwa; test: Inhibition of cell proliferation (MTT); type: cell-based; details: Homo sapiens, Lymphoma, 48 hours
Outline: as §1

[4] = test system: RS4-11; test: Inhibition of cell proliferation (MTT); type: cell-based; details: Homo sapiens; RS4-11, Leukemia; 48 hours
Outline: as §1

[5] = test system: SNB-75; test: Inhibition of cell proliferation (MTT); type: cell-based; details: Homo sapiens; SNB-75, CNS; 48 hours
Outline: as §1

[6] = test system: T-47D; test: Inhibition of cell proliferation (MTT); type: cell-based; details: Homo sapiens, T47D, Breast, 48 hours
Outline: as §1

[7] = test system: U937; test: Inhibition of cell proliferation (MTT); type: cell-based; details: Homo sapiens, U-937; U937, Lymphoma; 48 hours
Outline: as §1

[8] = target: M4 Muscarinic receptor (Homo sapiens, UniProt P08173); test: Receptor binding
M4 Muscarinic receptor, sequence (P08173 whole entry): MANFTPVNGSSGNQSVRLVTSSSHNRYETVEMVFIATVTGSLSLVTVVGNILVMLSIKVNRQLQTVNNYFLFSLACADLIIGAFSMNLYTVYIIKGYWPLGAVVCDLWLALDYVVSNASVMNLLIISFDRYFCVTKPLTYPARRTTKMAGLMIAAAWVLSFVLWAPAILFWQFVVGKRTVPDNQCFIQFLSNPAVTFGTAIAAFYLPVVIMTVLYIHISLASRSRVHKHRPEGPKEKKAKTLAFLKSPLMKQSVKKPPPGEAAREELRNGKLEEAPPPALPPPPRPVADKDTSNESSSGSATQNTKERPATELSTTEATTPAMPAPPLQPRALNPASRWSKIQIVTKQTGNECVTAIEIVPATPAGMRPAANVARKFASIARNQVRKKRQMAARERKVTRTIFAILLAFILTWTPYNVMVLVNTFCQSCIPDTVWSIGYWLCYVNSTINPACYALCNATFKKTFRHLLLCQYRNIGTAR

[9] = test system: BZD (peripheral) peripheral Benzodiazepine receptor; test: Receptor binding
[10] = target: CCKA/CCK1 Cholecystokinin receptor (Homo sapiens, UniProt P32238); test: Receptor binding
CCKA/CCK1 Cholecystokinin receptor, sequence (P32238 whole entry): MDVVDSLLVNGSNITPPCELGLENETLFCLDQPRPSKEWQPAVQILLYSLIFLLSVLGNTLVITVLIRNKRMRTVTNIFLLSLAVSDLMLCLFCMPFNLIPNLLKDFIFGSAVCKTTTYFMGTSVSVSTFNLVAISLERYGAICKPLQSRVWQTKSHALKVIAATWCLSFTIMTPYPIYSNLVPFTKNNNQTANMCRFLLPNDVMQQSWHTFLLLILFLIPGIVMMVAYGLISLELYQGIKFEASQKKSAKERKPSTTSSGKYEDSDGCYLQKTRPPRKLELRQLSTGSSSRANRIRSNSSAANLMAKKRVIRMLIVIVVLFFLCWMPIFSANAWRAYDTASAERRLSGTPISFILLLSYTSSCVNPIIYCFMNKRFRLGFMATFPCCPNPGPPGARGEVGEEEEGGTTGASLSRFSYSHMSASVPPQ
Experimental: (§2) The binding IC50, functional effect, and functional EC50 of TA1-1B on exemplary receptors was determined.

[11] = target: SST1 (Homo sapiens, UniProt P30872); test: Receptor binding
SST1, sequence (P30872 whole entry, species assumed): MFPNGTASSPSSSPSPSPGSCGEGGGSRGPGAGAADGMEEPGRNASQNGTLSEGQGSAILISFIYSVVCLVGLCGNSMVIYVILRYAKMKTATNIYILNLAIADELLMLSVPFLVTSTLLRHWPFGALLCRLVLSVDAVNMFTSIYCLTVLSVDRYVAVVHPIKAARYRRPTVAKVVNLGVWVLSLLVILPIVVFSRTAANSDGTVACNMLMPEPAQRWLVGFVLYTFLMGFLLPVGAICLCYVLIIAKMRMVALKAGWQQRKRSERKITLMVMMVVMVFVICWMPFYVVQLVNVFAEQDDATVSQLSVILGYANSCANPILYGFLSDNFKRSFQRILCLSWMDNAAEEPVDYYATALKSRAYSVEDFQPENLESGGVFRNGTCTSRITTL
Experimental: as §2

[12] = target: SST4 (Homo sapiens, UniProt P31391); test: Receptor binding
SST4, sequence (P31391 whole entry, species assumed): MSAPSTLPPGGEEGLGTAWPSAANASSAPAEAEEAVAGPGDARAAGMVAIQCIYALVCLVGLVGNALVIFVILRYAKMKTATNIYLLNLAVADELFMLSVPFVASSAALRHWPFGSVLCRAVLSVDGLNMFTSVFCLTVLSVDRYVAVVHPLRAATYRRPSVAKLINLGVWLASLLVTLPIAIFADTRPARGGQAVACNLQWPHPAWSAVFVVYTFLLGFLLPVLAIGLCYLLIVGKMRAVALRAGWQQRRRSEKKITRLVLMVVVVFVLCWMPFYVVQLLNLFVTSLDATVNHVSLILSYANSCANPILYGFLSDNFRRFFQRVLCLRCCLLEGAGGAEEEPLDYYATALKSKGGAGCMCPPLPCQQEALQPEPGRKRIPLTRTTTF
Experimental: as §2

[13] = target: SST5 (Homo sapiens, UniProt P35346); test: Receptor binding
SST5, sequence (P35346 whole entry, species assumed): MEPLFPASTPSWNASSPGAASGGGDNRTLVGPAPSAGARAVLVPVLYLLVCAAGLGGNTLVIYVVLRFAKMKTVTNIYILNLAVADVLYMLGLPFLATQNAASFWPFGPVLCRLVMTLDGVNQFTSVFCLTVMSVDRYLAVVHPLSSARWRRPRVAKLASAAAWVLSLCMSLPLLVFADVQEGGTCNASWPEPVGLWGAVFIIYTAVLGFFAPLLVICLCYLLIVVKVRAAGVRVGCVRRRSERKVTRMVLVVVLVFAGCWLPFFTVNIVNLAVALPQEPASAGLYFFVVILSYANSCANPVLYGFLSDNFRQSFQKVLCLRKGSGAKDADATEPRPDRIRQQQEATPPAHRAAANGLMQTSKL
Experimental: as §2

[14] = target: Adenosine A2A receptors (Homo sapiens, UniProt P29274); test: Receptor binding
Adenosine A2A receptors, sequence (P29274 whole entry): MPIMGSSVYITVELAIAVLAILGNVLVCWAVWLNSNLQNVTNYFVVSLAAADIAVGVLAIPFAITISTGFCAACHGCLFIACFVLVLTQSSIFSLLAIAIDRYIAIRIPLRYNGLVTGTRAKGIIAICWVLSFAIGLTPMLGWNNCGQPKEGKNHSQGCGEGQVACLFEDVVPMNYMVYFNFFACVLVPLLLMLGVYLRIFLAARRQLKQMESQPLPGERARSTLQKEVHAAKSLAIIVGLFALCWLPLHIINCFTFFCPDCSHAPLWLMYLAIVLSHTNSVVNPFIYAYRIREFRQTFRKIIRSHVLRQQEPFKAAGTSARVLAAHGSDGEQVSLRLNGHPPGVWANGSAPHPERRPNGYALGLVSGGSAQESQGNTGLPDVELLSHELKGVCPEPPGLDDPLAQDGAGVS

[15] = test system: κ-opioid (KOP) opioid receptor; test: Receptor binding
[16] = test system: 5-HT1B 5-hydroxytryptamine (serotonin) receptor 1B; test: Receptor binding
[17] = target: H2-receptor (Homo sapiens, UniProt P25021); test: Receptor binding
H2-receptor, sequence (P25021 whole entry): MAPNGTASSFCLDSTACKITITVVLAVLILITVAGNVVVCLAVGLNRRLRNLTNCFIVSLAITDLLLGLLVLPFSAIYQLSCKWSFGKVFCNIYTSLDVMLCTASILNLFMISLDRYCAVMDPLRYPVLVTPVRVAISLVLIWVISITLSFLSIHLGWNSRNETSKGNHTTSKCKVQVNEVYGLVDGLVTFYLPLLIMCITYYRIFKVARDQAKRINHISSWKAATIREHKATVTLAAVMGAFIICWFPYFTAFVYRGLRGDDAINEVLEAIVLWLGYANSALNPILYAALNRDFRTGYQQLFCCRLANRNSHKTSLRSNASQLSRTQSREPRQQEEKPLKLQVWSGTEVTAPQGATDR

[18] = Tissue distribution in rats (in vivo pharmacokinetic study); parameters: species or system Sprague Dawley rats
Experimental: Five groups (three animals per group) of male Sprague Dawley rats were assigned for in vivo pharmacokinetic study. • Group-1 animals were dosed intravenously with compound TA1-1B at 7.5 mg/kg and after 2 hr post-dose animals were terminated and whole blood, plasma, brain, bone marrow and adrenal gland collected. • Group-2 animals were dosed intravenously with compound TA1-1B at 7.5 mg/kg for five consecutive days. After 2 hr of the last dose (98 hr) animals were terminated and whole blood, plasma, brain, bone marrow and adrenal gland collected. • Group-3 animals were dosed intravenously with compound TA1-1B at 7.5 mg/kg for five consecutive days. After 26 hr of the last dose (122 hr) animals were terminated and whole blood, plasma, brain, bone marrow and adrenal gland collected. • Group-4 animals were dosed intravenously with compound TA1-1B at 7.5 mg/kg for five consecutive days. After 50 hr of the last dose (146 hr) animals were terminated and whole blood, plasma, brain, bone marrow and adrenal gland collected. • Group-5 animals were dosed intravenously with vehicle, terminated and whole blood, plasma, brain, bone marrow and adrenal gland collected. Tissues obtained from this group of animals were used for corresponding matrix preparation in subsequent bioanalysis.
After administration the compound TA1-1B quickly reaches those tissues (after 2 hr) and subsequently gets cleared.

[19] = 7.5 mg/kg intravenously (FIG. 3)
[20] = 7.5 mg/kg intravenously, time point not stated, unit from FIG. 2 legend

CN1CCC[C@H]1CCNC(=O)c1cn2c3c(c(N4CCC(c5cnccn5)C4)c(F)cc3c1=O)Oc1cc3ccccc3cc1-2 (stereo partly drawn) [TA1-1B]
EC50 [1]: 3.06 µM | EC50 [2]: 3.87 µM | EC50 [3]: 1.42 µM | EC50 [4]: 0.55 µM | EC50 [5]: 2.31 µM | EC50 [6]: 6.56 µM | EC50 [7]: 4.54 µM | inhibition at 1 µM [8]: 87% | % inhibition @ 1 uM [9]: 65% | IC50 ([10]; CCK1/CCKA): 0.64 µM | inhibition at 1 µM ([10]; CCKA/CCK1, 1 uM): 64% | IC50 [11]: 2.8 µM | IC50 [12]: > 10 µM | IC50 [13]: > 10 µM | inhibition at 1 µM [14]: 60% | % inhibition @ 1 uM [15]: 52% | % inhibition @ 1 uM [16]: 49% | inhibition at 1 µM [17]: 48% | Exposure in adrenal glands and bone marrow relative to other tissues [18, 19]: highest exposures | Retention in adrenal glands and bone marrow versus brain [18, 19]: retains longer | Elimination from rat brain tissue ([18]; 7.5 mg/kg intravenously QDx5, over 48 hr post-dose (FIG. 2)): almost completely eliminates | Concentration in brain tissue [18, 20]: 1600 nM | Concentration in plasma [18, 20]: 200 nM | Concentration in whole blood [18, 20]: 500 nM
